Reference: publication PMC12344264, “Mechanistic, in-silico and in vitro studies with nitrofurans reveal potent leishmanicidal activity and inhibition of trypanothione reductase” (International Journal for Parasitology: Drugs and Drug …, 2025)
Where two headings read alike, the source gives them in different places.

Tests used:
[1] = Cytotoxicity in primary splenocytes, alamarBlue, 72 h; assay type: cell-based; details: mouse
Method: (§1) For cytotoxicity tests, several mammalian cell lines were used. […] Primary cell cultures were also used to evaluate cytotoxicity. […] BMDM cells were differentiated for one week with 30 % […] from L929 cell line.
(§2) The in vitro cytotoxicity of the selected nitrofurans was evaluated in HepG2, RAW 264.7 cells, splenocytes and BMDM. In each well of a 96-well microtitre plate, 100 μL containing 10,000 HepG2 or RAW 264.7 cells were incubated for 24h at 37 °C and 5 % CO2 to allow the cells to settle. For primary cells, 100 μL containing 100,000 BMDM or 1,000,000 splenocytes were added to each well. Subsequently, […] of one-half serial dilutions of each compound diluted in DMEM (for HepG2 cells), RPMI medium (for RAW cells), splenocyte medium (for splenocytes) or BMDM medium supplemented with 10 % GM-CSF (for BMDM), were added to each well. The cytotoxic effect of the compounds was measured after 72 h of incubation at 37 °C and 5 % CO2. For this purpose, a 10 % (v/v) of the alamarBlue™ cell viability reagent (Invitrogen, Fisher Scientific International Inc., Pittsburgh, PA, USA) was added, and the reaction was incubated for 4 h at 37 °C and 5 % CO2. Fluorescence was measured using a Varioskan Lux spectrophotometer (ThermoFisher Scientific, Waltham, MA, USA). Positive controls consisting of 0.1 % (v/v) H2O2, and negative controls, consisting of 0.1 % (v/v) DMSO, were also included on each plate.
(§3) All experiments were carried out in triplicate and included at least three technical replicates. […] The SI was calculated from the CC50/EC50 ratio.

[2] = Cytotoxicity, alamarBlue, 72 h; assay type: cell-based; details: human
Method: as §1, §2, §3

[3] = test system: L. donovani-iRFP axenic amastigotes; experiment: ROS production by axenic amastigotes (DCFH-DA, flow cytometry); assay type: cell-based, Leishmania donovani; details: compound at its axenic EC50, 3 h
Method: To assess ROS production in L. donovani-iRFP, axenic amastigotes were treated with nitrofurans at the concentration equivalent to their EC50 calculated in viability experiments. As positive control of oxidative stress induction, cultures were treated with 0.01 % H2O2 (v/v), whereas 0.03 % (v/v) DMSO was added as negative control. After an incubation period of 3 h at 37 °C, cells were harvested by centrifugation at 3500 rcf for 10 min, washed in phosphate-buffered saline (PBS), centrifuged again and resuspended in PBS. Cells were labeled with 5 μM 2′,7′-dichlorofluorescein diacetate (DCFH-DA, MedChemExpress) for 30 min at 37 °C. Then, cells were centrifuged at 3500 rcf for 5 min, washed, and resuspended in PBS. The cell suspension was stored at 4 °C until the analysis by flow cytometry, which was performed in a CytoFLEX SRT (Beckman Coulter). The experiment was carried out in triplicate and included three technical replicates.

[4] = test system: L. donovani-iRFP axenic amastigotes; experiment: Antileishmanial effect on axenic amastigotes (iRFP fluorescence viability, 72 h); assay type: cell-based; details: Leishmania donovani
Method: (§4) For efficacy studies, L. donovani-iRFP, a genetically modified strain of L. donovani LV9 constitutively expressing the gene encoding the infrared fluorescent protein (iRFP) ([Melcón-Fernández et al., 2023]), was used. This strain was grown as promastigotes in Schneider's insect medium (Sigma-Aldrich, Merck, Darmstadt, Germany) supplemented with 20 % (v/v) foetal bovine serum (FBS) (Gibco, ThermoFisher Scientific, Waltham, MA, USA) and […] antibiotic cocktail (100 U/mL penicillin and 100 μg/mL streptomycin) (Hyclone, ThermoFisher Scientific, Waltham, MA, USA) at 26 °C until mice were infected ([Carballeira et al., 2016]). Axenic and intramacrophage amastigotes were isolated from six-to eight-week-old female Balb/c mice (see below) that had been infected intraperitoneally with 1.5 × 10^9 metacyclic L. donovani-iRFP promastigotes. To obtain axenic amastigotes, bone marrow was extracted from the femur and tibia of 8- to 10-week-old infected mice and passed through a 100 μm cell strainer. After centrifugation at 3500 rcf for 10 min at room temperature, cell suspensions were resuspended in medium containing 15 mM KCl; 136 mM KH2PO4; 10 mM K2HPO4.3H2O; 0.5 mM MgSO4.7H2O; 24 mM NaHCO3; 22 mM glucose; 1 mM glutamine, 1 × RPMI 1640 vitamin mix (Sigma-Aldrich, Merck, Darmstadt, Germany), 10 mM folic acid, 100 mM adenosine, 1 × RPMI amino acid mix (Sigma-Aldrich, Merck, Darmstadt, Germany), 5 mg/mL hemin, 25 mM 2-morpholinoethanesulfonic acid (MES) pH 5.6, supplemented with 10 % FBS (Gibco, ThermoFisher Scientific, Waltham, MA, USA) and antibiotic cocktail, and incubated at 37 °C and 5 % CO2. To obtain intramacrophage amastigotes, spleens from infected Balb/c mice were cut into pieces, ground with 2 mg/mL collagenase D (Merck, Darmstadt, Germany) and passed through a 100 μm cell strainer. The splenocyte-enriched cell suspension containing intramacrophage amastigotes was resuspended in RPMI medium (Gibco, Fisher Scientific International Inc., Pittsburgh, PA, USA) supplemented with 20 % FBS, 1 mM sodium pyruvate, 24 mM NaHCO3, 2 mM L-glutamine, 1 × RPMI vitamins, 25 mM HEPES pH 7.2 and antibiotic cocktail ([Ashok et al., 2016]).
(§5) The antileishmanial effect of the nitrofurans selected in this study was tested both in vitro on axenic L. donovani-iRFP amastigotes and ex vivo on intramacrophage amastigotes according to previously published methods ([Melcón-Fernández et al., 2023], [2024]; [Andrés-Rodríguez et al., 2024]). Assays were performed in a final volume of […] containing 20,000 axenic amastigotes or a number of L. donovani-iRFP-infected murine splenocytes representing 150,000 relative fluorescence units (RFU), in each well of a black 384-well microtiter plate with optical bottom. In addition, 40 μL of one-half serial dilutions of each compound in amastigotes culture medium (for axenic amastigotes) or in supplemented RPMI medium (for intramacrophage amastigotes) were added to each well. Positive (amphotericin B at a final concentration of 18 μM) and negative (0.1 % v/v DMSO) controls were included on each plate. The plates were incubated at 37 °C and 5 % CO2 for a maximum of 72 h. Fluorescence emitted by viable L. donovani-iRFP was measured on an Odyssey infrared imaging system (Li-Cor, NE, USA).
as §3

[5] = test system: L. donovani-iRFP intramacrophage amastigotes; experiment: Ex vivo antileishmanial effect on intramacrophage amastigotes (infected murine splenocytes, iRFP fluorescence, 72 h); assay type: cell-based; details: Leishmania donovani, Splenocyte
Method: as §4, §5, §3

[6] = Cytotoxicity in bone marrow-differentiated macrophages, alamarBlue, 72 h; assay type: cell-based; details: mouse
Method: as §1, §2, §3

L. donovani TryR = biological target: T1, L. donovani TryR (Leishmania donovani, UniProt P39050); experiment: biochemical; details: for Type of inhibition: Lineweaver-Burk double reciprocal plot, varying T[S]2
T1 construct: endogenous in cells; host or cells: L. donovani-iRFP (LV9) axenic amastigotes, crude cell extract
Method: The activity of L. donovani TryR was measured in the presence of different concentrations of nitrofurans according to the protocol previously described ([Melcón-Fernández et al., 2023]). Briefly, 1 × 10^10 L. donovani-iRFP axenic amastigotes were washed twice in PBS and lysed with a solution containing 1 mM EDTA, 40 mM HEPES, 50 mM Tris HCl pH 7.5, 2 % (v/v) Triton X-100 and Pierce™ Protease Inhibitors Mini Tablets (ThermoFisher Scientific, Waltham, MA, USA). Cell extracts were prepared by mechanical disruption of the cells with 0.5 mm diameter glass beads (Merck, Darmstadt, Germany) and the supernatant obtained by centrifugation at 10,000 rcf for 5 min at 4 °C was used to measure TryR activity in 96-well plates. […] Cell extracts diluted in Tris HCl pH 7.5 (0.43 μg of total protein in 50 μL) were added to launch the reaction. The negative control consisted of 2.5 % DMSO, whereas the blank reaction included the TryR assay solution without T [S]2. […] To determine steady-state conditions, enzymatic activity was measured at 412 nm (ε = 14,150 M^−1 cm^−1) for a period of up to 120 min (with 5 min intervals) at 26 °C in a Varioskan Lux spectrophotometer (ThermoFisher Scientific, Waltham, MA, USA). The experiment was carried out in triplicate and included three technical replicates.

[7] = Cytotoxicity, alamarBlue, 72 h; assay type: cell-based, murine; details: mouse
Method: as §1, §2, §3

[8] = primary splenocytes from healthy, non-infected mice, 72 h, alamarBlue, uninfected mice, read-out: Splenocytes CC50
[9] = HepG2 cells, 72 h, alamarBlue, read-out: HepG2 cells CC50
[10] = bone marrow-differentiated macrophages (BMDM), 72 h, alamarBlue, uninfected mice, read-out: BMDM CC50
[11] = T[S]2 25-150 μM, inhibitor 6.25-100 μM, NADPH 0.20 mM, read-out: Ki
[12] = RAW 264.7 cells, 72 h, alamarBlue, read-out: RAW 264.7 cells CC50

T1 sequence (P39050 whole entry): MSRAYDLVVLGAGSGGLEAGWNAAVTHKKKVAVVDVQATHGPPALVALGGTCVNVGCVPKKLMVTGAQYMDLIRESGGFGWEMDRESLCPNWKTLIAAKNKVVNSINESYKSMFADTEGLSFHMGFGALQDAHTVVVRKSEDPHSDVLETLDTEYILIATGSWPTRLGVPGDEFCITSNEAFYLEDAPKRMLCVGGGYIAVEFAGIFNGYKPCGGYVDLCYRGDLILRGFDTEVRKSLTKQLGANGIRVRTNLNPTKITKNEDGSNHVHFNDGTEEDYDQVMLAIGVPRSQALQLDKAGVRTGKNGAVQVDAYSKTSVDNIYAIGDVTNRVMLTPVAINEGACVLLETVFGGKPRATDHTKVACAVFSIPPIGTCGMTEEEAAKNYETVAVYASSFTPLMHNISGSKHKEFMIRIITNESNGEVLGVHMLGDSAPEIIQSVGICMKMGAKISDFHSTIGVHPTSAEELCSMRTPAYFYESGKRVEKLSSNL

Structure (SMILES) | CC50 at 72 h [1, 8] | CC50 at 72 h [2, 9] | Negative ROS (unstressed population) [3] | Positive ROS (stressed population) [3] | EC50 [4] | EC50 [5] | CC50 at 72 h [6, 10] | Type of inhibition (L. donovani TryR) | Ki (L. donovani TryR; [11]) | CC50 at 72 h [7, 12] | Positive ROS (stressed population) ([3]; listed as FURAZOLIDONE) | Ki (L. donovani TryR) | CC50 at 72 h [1] | CC50 at 72 h [2] | CC50 at 72 h [6] | CC50 at 72 h [7] | CC50 at 72 h ([1]; 72 h, alamarBlue, uninfected mice, read-out: Splenocytes CC50) | CC50 at 72 h ([6]; 72 h, alamarBlue, uninfected mice, read-out: BMDM CC50)
O=C1NN(c2ccc(F)c(Cl)c2)C(=O)C1=Cc1ccc([N+](=O)[O-])o1 [PYZD-4409, 1-(3-chloro-4-fluorophenyl)-4-[(5-nitro-2-furyl)methylene]-3,5-pyrazolidinedione] | 11.7 ± 0.5 µM | 16.3 ± 0.56 µM | 36.9% | 63.1% | 1.27 ± 0.04 µM | > 100 µM | 20.8 ± 6.4 µM | Competitive | 7.63 ± 2.56 µM | 51.7 ± 8.03 µM | – | – | – | – | – | – | – | –
O=C1OCCN1/N=C/c1ccc([N+](=O)[O-])o1 [Furazolidone] | – | – | 45.9% | 54.1 ± 5.8% | 0.17 ± 0.01 µM | 0.09 ± 0.004 µM | – | Uncompetitive | – | – | 54.1% | 13.7 ± 2.76 µM | – | – | – | – | – | –
CC(=O)OC(OC(C)=O)c1ccc([N+](=O)[O-])o1 [5-nitro-2-furaldehide diacetate, 5-Nitro-2-furaldehyde diacetate] | – | – | 31.1% | 68.9% | 3.48 ± 0.09 µM | 4.6 ± 0.26 µM | – | Uncompetitive | – | – | – | 77.2 ± 21.9 µM | 11 ± 0.28 µM | 24.1 ± 0.59 µM | 11.9 ± 0.46 µM | 15.6 ± 1.27 µM | – | –
CC1CS(=O)(=O)CCN1/N=C/c1ccc([N+](=O)[O-])o1 (centres unmarked) [Nifurtimox] | – | 84.9 ± 12.4 µM | 31.9% | 68.1% | 3.96 ± 0.37 µM | 1 ± 0.07 µM | – | Uncompetitive | – | 50.5 ± 2.25 µM | – | 33.5 ± 6.93 µM | – | – | – | – | 37.8 ± 6.12 µM | 60.2 ± 4.79 µM
N#Cc1ccc([N+](=O)[O-])o1 [5-nitro-2-furonitrile, 5-Nitro-2-furonitrile] | 8.49 ± 0.52 µM | 21.7 ± 0.39 µM | 38.2% | 61.8% | 0.7 ± 0.05 µM | 1.45 ± 0.11 µM | 25.8 ± 0.6 µM | Competitive | 24.8 ± 1.43 µM | 31.2 ± 5.04 µM | – | – | – | – | – | – | – | –
